In brackets after ≈: the same amount, converted by molar mass.
Experiments:
[1] = test system: ATCC 25923 strain of staphylococcus aureus; test: Minimum inhibitory concentration against staph A; format: cell-based; details: ATCC25923; staphylococcus aureus ATCC 25923
Experimental: The pharmacological analysis of the methane sulfonate prodrug of CSA-13 (CSA-13 MS) versus the free base CSA-13 compound was assessed for their antimicrobial properties against the ATCC 25923 strain of staphylococcus aureus (hereinafter “staph A”).

[2] = test system: C57BL/6 female mice; test: Maximum Tolerated Dose study of CSA-192 MS, intravenous, in mice; format: in vivo; details: for mortality and abnormal clinical signs: 7 days observation
Text: The objective of this study was to determine the Maximum Tolerated Dose (MTD) of CSA-192 MS following intravenous (i.v.) administration at various dose levels in C57BL/6 female mice. FIG. 2 is a graph showing CSA-192 MS Kinetics.
Immunocompetent C57BL/6 female mice weighing 16 to 20 g were obtained from the University of Sevilla's facility. The number of animals that were selected for use in this study was considered to be the minimum requirement to meet rational scientific endpoints.
One the first day of the study, mice were subjected to randomization and allocated to different groups, so that each group (G) contains 6 females. Each cage housed 6 mice. Each cage was identified by a cage card, with details like study item, species, strain, sex, number of animals, date, dose, and investigator name.
The study was conducted at four different dose levels. On day 1 of treatment all the animals in G1, G2, G3, and G4 groups were administered with CSA-192 MS at 4, 8, 16, and 32 mg/kg based on their body weight. Dose volumes were maintained at 0.2 mL for G1, G2, and G3. The dose volume for G4 was 0.32 mL.
More particularly, the test item was administered by intravenous route, at dose concentration of 4 mg/kg body weight for G1, 8 mg/kg body weight for G2, 16 mg/kg body weight for G3, and 32 mg/kg body weight G4 groups, respectively. Dose volumes were maintained at 0.2 mL for G1, G2, and G3. For group G4 the dose volume was 0.32 mL.
The first day they were checked immediately after dose administration, at 30 min, 1 hour, and every 4 hours, the following days twice a day. Mice were sacrificed on day 7 of the study period.

## CCCCCCCCNCCC[C@@H](C)[C@H]1CC[C@H]2[C@@H]3[C@H](OCCCN)C[C@@H]4C[C@H](OCCCN)CC[C@]4(C)[C@H]3C[C@H](OCCCN)[C@]12C [CSA-13]
[1]
  MIC: 1.6 µg/mL (≈ 2.36 µM)

## CCCCCCCCNC(=O)CC[C@@H](C)[C@H]1CC[C@H]2[C@@H]3[C@H](OCCCN)C[C@@H]4C[C@H](OCCCN)CC[C@]4(C)[C@H]3C[C@H](OCCCN)[C@]12C [CSA-192 MS]
[2]; 4.0 mg/kg body weight (G1), intravenously
  mortality and abnormal clinical signs: no incidences of mortality and abnormal clinical signs
[2]; 8.0 mg/kg body weight (G2), intravenously
  mortality and abnormal clinical signs: no incidences of mortality and abnormal clinical signs
[2]; 16.0 mg/kg body weight (G3), intravenously, immediately after administration, disappeared after an hour, rest of G3 without signs
  clinical signs: one animal showed signs of somnolence
[2]; 32.0 mg/kg body weight (G4), intravenously
  mortality and abnormal clinical signs: no incidences of mortality and abnormal clinical signs
[2]; G1 4 mg/Kg i.v., Day 1
  Clinical observations/No of animals per group: 0/6
  No of animals found dead/No. of animals per group: 0/6
[2]; G1 4 mg/Kg i.v., Day 2
  Clinical observations/No of animals per group: 0/6
  No of animals found dead/No. of animals per group: 0/6
[2]; G1 4 mg/Kg i.v., Day 3
  Clinical observations/No of animals per group: 0/6
  No of animals found dead/No. of animals per group: 0/6
[2]; G1 4 mg/Kg i.v., Day 4
  Clinical observations/No of animals per group: 0/6
  No of animals found dead/No. of animals per group: 0/6
[2]; G1 4 mg/Kg i.v., Day 5
  Clinical observations/No of animals per group: 0/6
  No of animals found dead/No. of animals per group: 0/6
[2]; G1 4 mg/Kg i.v., Day 6
  Clinical observations/No of animals per group: 0/6
  No of animals found dead/No. of animals per group: 0/6
[2]; G1 4 mg/Kg i.v., Day 7
  Clinical observations/No of animals per group: 0/6
  No of animals found dead/No. of animals per group: 0/6
[2]; G2 8 mg/kg i.v., Day 1
  Clinical observations/No of animals per group: 0/6
  No of animals found dead/No. of animals per group: 0/6
[2]; G2 8 mg/kg i.v., Day 2
  Clinical observations/No of animals per group: 0/6
  No of animals found dead/No. of animals per group: 0/6
[2]; G2 8 mg/kg i.v., Day 3
  Clinical observations/No of animals per group: 0/6
  No of animals found dead/No. of animals per group: 0/6
[2]; G2 8 mg/kg i.v., Day 4
  Clinical observations/No of animals per group: 0/6
  No of animals found dead/No. of animals per group: 0/6
[2]; G2 8 mg/kg i.v., Day 5
  Clinical observations/No of animals per group: 0/6
  No of animals found dead/No. of animals per group: 0/6
[2]; G2 8 mg/kg i.v., Day 6
  Clinical observations/No of animals per group: 0/6
  No of animals found dead/No. of animals per group: 0/6
[2]; G2 8 mg/kg i.v., Day 7
  Clinical observations/No of animals per group: 0/6
  No of animals found dead/No. of animals per group: 0/6
[2]; G3 16 mg/kg i.v., Day 1
  Clinical observations/No of animals per group: 1/6
  No of animals found dead/No. of animals per group: 0/6
[2]; G3 16 mg/kg i.v., Day 2
  Clinical observations/No of animals per group: 0/6
  No of animals found dead/No. of animals per group: 0/6
[2]; G3 16 mg/kg i.v., Day 3
  Clinical observations/No of animals per group: 0/6
  No of animals found dead/No. of animals per group: 0/6
[2]; G3 16 mg/kg i.v., Day 4
  Clinical observations/No of animals per group: 0/6
  No of animals found dead/No. of animals per group: 0/6
[2]; G3 16 mg/kg i.v., Day 5
  Clinical observations/No of animals per group: 0/6
  No of animals found dead/No. of animals per group: 0/6
[2]; G3 16 mg/kg i.v., Day 6
  Clinical observations/No of animals per group: 0/6
  No of animals found dead/No. of animals per group: 0/6
[2]; G3 16 mg/kg i.v., Day 7
  Clinical observations/No of animals per group: 0/6
  No of animals found dead/No. of animals per group: 0/6
[2]; G4 32 mg/kg i.v., Day 1
  Clinical observations/No of animals per group: 0/6
  No of animals found dead/No. of animals per group: 0/6
[2]; G4 32 mg/kg i.v., Day 2
  Clinical observations/No of animals per group: 0/6
  No of animals found dead/No. of animals per group: 0/6
[2]; G4 32 mg/kg i.v., Day 3
  Clinical observations/No of animals per group: 0/6
  No of animals found dead/No. of animals per group: 0/6
[2]; G4 32 mg/kg i.v., Day 4
  Clinical observations/No of animals per group: 0/6
  No of animals found dead/No. of animals per group: 0/6
[2]; G4 32 mg/kg i.v., Day 5
  Clinical observations/No of animals per group: 0/6
  No of animals found dead/No. of animals per group: 0/6
[2]; G4 32 mg/kg i.v., Day 6
  Clinical observations/No of animals per group: 0/6
  No of animals found dead/No. of animals per group: 0/6
[2]; G4 32 mg/kg i.v., Day 7
  Clinical observations/No of animals per group: 0/6
  No of animals found dead/No. of animals per group: 0/6
[2]; all groups (4, 8, 16, 32 mg/kg i.v.)
  treatment related change in body weight: No treatment related change in body weight was observed
[2]; any of the groups (4, 8, 16, 32 mg/kg i.v.), 7 days
  mortality: no mortality was observed
